Measurements reported in patent US20260269287A1, “ALL-NONAQUEOUS MEMBRANE-FREE FLOW BATTERIES” (University of Cincinnati, priority 2023, published 2026).
Values after ≈ are worked out from the molar mass of the structure shown. “Also recorded” adds a separate entry of the source.

Experiments:
Assay type in all cases: physicochemical
[1] = Crossover study of C18-PTZ in the Design-I triphasic system under static conditions (UV-visible, CV); settings: 0.5 M in FEC phase, 10-day period
Text: (§1) Selection of the anode and cathode materials. Achieving a high capacity for RFBs requires the selection of redox-active materials with high potential. In this study, Li metal was selected as the anode because of its low electrochemical potential (−3.04 V vs. a standard hydrogen electrode), high energy density, and theoretical capacity (~3,860 mAh/g). Graphite felt (GF) was selected as the cathode owing to its chemical inertness in nonaqueous electrolytes, high electrical conductivity, highly porous structure, and high specific surface area. […] The solubility properties of several redox-active catholyte compounds, including derivatives of phenothiazine, cyclopropenium, 2,2,6,6-tetramethylpiperidinyloxy (TEMPO), anthraquinone (AQ), and ferrocene, were evaluated as the three supporting electrolytes in the triphasic system (FIG. 88). […] The system was evaluated for the potential crossover of 0.5 M C18-PTZ dissolved in the FEC phase. […]
(§2) Selection of the anode and cathode materials. […] The solubility properties of several redox-active catholyte compounds, including derivatives of phenothiazine, cyclopropenium, 2,2,6,6-tetramethylpiperidinyloxy (TEMPO), anthraquinone (AQ), and ferrocene, were evaluated as the three supporting electrolytes in the triphasic system (FIG. 85). […] The system was evaluated for the potential crossover of 0.5 M C18-PTZ dissolved in the FEC phase. […]

[2] = Solubility of catholyte compounds in the three supporting electrolytes of the triphasic system
Text: as §1, §2

[3] = Solubility test of C18-PTZ in FEC/LiTFSI; settings: in FEC/LiTFSI (1.2 M)
Procedure: Solubility test. […] The solution was gradually added to a vial containing known amounts of C18-PTZ. Once a clear solution was just obtained, the volume of the electrolyte was determined by an analytical pipette. The solubility of organic compounds was calculated from the ratio of the molar amount to electrolyte volume. These processes are repeated twice, and the averaged values are presented.
Solubility Test. […] The solution was incrementally added to a vial containing known quantities of C18-PTZ. The addition continued until a clear solution was achieved, at which point the volume of the electrolyte was measured using an analytical pipette. Subsequently, the solubility of the organic compounds was calculated by finding the ratio of the molar amount of C18-PTZ to the volume of the electrolyte. This entire process was repeated twice to ensure accuracy, and the averaged values of the solubility were reported as the final result.

[4] = RDE linear sweep voltammetry of C18-PTZ in 0.1 M FEC/LiTFSI; settings: 1 mM in 0.1 M FEC/LiTFSI
Procedure: To investigate the electrochemical kinetics of C18-PTZ redox molecules, linear sweep voltammetry (LSV) was conducted using the rotating disk electrode (RDE) technique. The LSV curves of C18-PTZ were measured in electrolyte solutions containing 1.0 mM C18-PTZ in 0.1 M FEC/LiTFSI solution, and the results are presented in FIG. 68(a).
Calculation of diffusion coefficient and electron transfer rate. Linear sweep voltammetry (LSV) studies were carried out using a Pine modulated speed rotator with Biologic potentiostats. Rotating disk electrode (RDE, diameter: 5 mm), Pt wire electrode and Ag/Ag^+ electrode were used as the working, counter and reference electrodes, respectively. Before testing, the samples were purged with argon for 10 min. LSV dates were collected at different rotation rates ranging from 100 to 1600 rpm. The diffusion coefficient (Do) of electroactive materials were calculated from the Levich plot using Equation 1.
The kinetic rate constant is calculated by Equation 2.
The LSV investigations were conducted using a Pine modulated speed rotator paired with Biologic potentiostats. […] The diffusion coefficient (D) of electroactive materials was calculated from the Lévich plot using Equation 1. The kinetic rate constant is calculated by Equation 2.

[5] = Cyclic voltammetry of C18-PTZ in 0.1 M FEC/LiTFSI
Procedure: Electrochemical characterization. CV studies were carried out to estimate the electrochemical properties of redox material (C18-PTZ) as well as the crossover of redox-active cathode material before and after long-term battery cycling. For CV measurements, 5 mM of C18-PTZ solution were prepared in 0.1 M FEC/LiTFSI electrolyte. A 3-mm glassy carbon was used as the working electrode and was polished with 50 nm Al2O3 before measurements. Platinum wire (0.5 mm) was used as the counter electrodes. A Ag/Ag^+ electrode was used as the reference electrode.
Electrochemical characterization. For the cyclic voltammetry (CV) measurements, C18-PTZ (5 mM) solutions were prepared in FEC/LiTFSI (0.1 M) electrolyte. A glassy carbon disk (CHI Instrument, 3 mm) was used as the working electrode and was polished with aqueous Al2O3(Pine Research Instrumentation, Inc., […]) before the measurements. A piece of Pt wire (Pine Research Instrumentation, Inc., thickness 0.5 mm, purity 99.99%) was used as the counter electrode while an Ag/Ag^+ (MTI Corp) electrode was used as the reference electrode. The CV measurements were performed using a Bio-Logic potentiostat. The charge/discharge performances were evaluated using Land and Bio-Logic potentiostats.

crossover out of the FEC layer [1]: no significant crossover | solubility in TEGDME and NFTTS ([2]; anolyte and intermediate layers of triphasic system): poor solubility | solubility in FEC ([2]; catholyte solvent of triphasic system): high solubility | solubility [3]: 0.5 M (≈ 226 mg/mL) | diffusion coefficient D ([4]; Levich plot): 6.23×10^−6 cm^2/s | redox couple potential ([5]; 5 mM in 0.1 M FEC/LiTFSI): 0.35 V vs. Ag/Ag^+ | peak potential separation ([5]; scan rate 50 mV/s): 68 mV | peak potential separations ([5]; scan rate 50 mV/s, unit not given): ~ 68 | ratio of cathodic peak current (ipc) and anodic peak current (ipa) ([5]; scan rates 50 to 250 mV/s): approximately 1
Structure (SMILES): CCCCCCCCCCCCCCCCCCN1c2ccccc2Sc2ccccc21 [C18-PTZ]
kinetic rate constant (k0) [4]: 0.00351 cm/s | electrochemical stability on repeated CV cycling ([5]; FEC/LiTFSI (0.1 M), 50 mV/s, 500 cycles): excellent electrochemical stability; also recorded: high electrochemical stability
